Where two headings read alike, the source gives them in different places.

This note sets out measurements from publication PMC6588349 (eLife, 2019).

Assay [1] concerns the target T1, full-length mGluR2 (Rattus norvegicus, UniProt P31421).
T1 construct: HEK 293T cells expressing full-length mGluR2; expressed in transfected cells; host or cells: HEK 293T
Description: Calcium imaging assay, HEK cells with full-length mGluR2, GCaMP6f and Gαiq chimera. The class given is cell-based. The method, then: (§1) Cells were cultured in DMEM with 5% FBS on poly-L-lysine-coated glass coverslips. DNA plasmids were transfected into cells using Lipofectamine 3000 (Thermo Fisher). […] For single-molecule pulldown (SiMPull) experiments, cells were transfected with 0.7 μg DNA of HA and SNAP-tagged receptor constructs, unless otherwise noted. For FRET experiments, cells were transfected with either SNAP-tagged constructs at 0.5–0.7 μg of DNA/well or SNAP and CLIP-tagged constructs at a ratio of 1:2 with 0.3 μg of SNAP DNA/well.
Experiments were conducted with continuous gravity-driven perfusion on an inverted microscope (Olympus IX73) and imaged with a 20x objective. […] Regions of interest were selected in Olympus cellSens software and represent single cells or small cell clusters (2–3 cells). Data analysis was performed in Microsoft Excel, where intensities were normalized to the baseline prior to drug application. Dose–response curves were fit using Prism (Graphpad) and data comes from at least two independent experiments for each LY48 concentration.

In assay [2] the target is T2, SNAP-mGluR2-R57A (Rattus norvegicus, UniProt P31421, R57A).
T2 construct: expressed in transfected cells; host or cells: HEK 293T
T2 sequence (P31421 19-872 R57A): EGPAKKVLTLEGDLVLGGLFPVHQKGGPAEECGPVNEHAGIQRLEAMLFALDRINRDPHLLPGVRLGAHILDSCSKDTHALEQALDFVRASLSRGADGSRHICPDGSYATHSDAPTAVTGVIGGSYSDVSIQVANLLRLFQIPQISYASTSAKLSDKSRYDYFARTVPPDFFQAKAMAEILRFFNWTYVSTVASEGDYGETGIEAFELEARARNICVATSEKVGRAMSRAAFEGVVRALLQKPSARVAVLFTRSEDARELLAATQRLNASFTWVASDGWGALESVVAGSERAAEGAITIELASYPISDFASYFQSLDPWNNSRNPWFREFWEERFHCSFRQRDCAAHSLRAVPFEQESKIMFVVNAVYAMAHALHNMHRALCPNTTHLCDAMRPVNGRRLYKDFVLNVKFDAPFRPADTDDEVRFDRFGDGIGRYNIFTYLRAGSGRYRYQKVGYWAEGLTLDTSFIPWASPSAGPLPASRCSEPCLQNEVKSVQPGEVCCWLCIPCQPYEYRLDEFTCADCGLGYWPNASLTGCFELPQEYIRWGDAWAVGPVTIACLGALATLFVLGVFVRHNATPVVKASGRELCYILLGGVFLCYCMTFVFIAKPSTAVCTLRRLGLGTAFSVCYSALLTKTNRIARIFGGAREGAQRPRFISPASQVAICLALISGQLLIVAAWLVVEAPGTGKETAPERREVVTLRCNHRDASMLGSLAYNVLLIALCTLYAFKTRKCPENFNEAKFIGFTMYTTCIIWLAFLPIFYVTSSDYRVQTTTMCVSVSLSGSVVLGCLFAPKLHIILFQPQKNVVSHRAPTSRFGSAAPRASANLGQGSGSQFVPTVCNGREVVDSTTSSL
Description: GIRK activation assay, whole cell patch clamp, SNAP-mGluR2-R57A. The class given is cell-based. The method, then:
as §1
Whole-cell patch clamp recordings from single isolated cells were performed 24–36 hr after transfection in a high-potassium extracellular solution containing (in mM): 120 KCl, 29 NaCl, 1 MgCl2, 2 CaCl2 and 10 HEPES, pH 7.4. Cells were voltage clamped to −60 mV using an Axopatch 200B amplifier (Axon Instruments) and membrane currents were recorded. Glass pipettes of resistance between 3 and 8 MΩ were filled with intracellular solution containing (in mM): 140 KCl, 10 HEPES, 3 Na2ATP, 0.2 Na2GTP, 5 EGTA and 3 MgCl2, pH 7.4. Data were acquired with a 2 kHz acquisition rate and filtered with the amplifier 4-pole Bessel filter at 1 kHz. Drugs were prepared in extracellular solution and applied using a gravity-driven perfusion system. Data were analyzed with Clampfit (Molecular Devices) and Prism (GraphPad). Data for all conditions came from at least two separate transfections.
On the technique in general: The patch-clamp technique gives a direct electrical read-out from membranes.

Assay [3] addresses T3, SNAP-mGluR2 (Rattus norvegicus, UniProt P31421).
T3 construct: HEK 293T cells expressing full-length mGluR2; expressed in transfected cells; host or cells: HEK 293T
The assay is described as follows: Single-molecule pulldown (SiMPull) photobleaching step counting, full-length SNAP-mGluR2. The following applies: 1 mM glutamate and 10 µM LY48. As for the experimental part:
To restrict our analysis to surface-targeted receptors, we expressed N-terminally SNAP-tagged receptor variants and labeled them with membrane-impermeable fluorophores.
To test this, we incubated SNAP-mGluR2-TMD expressing cells and lysates with PAMs or NAMs during the SiMPull experiment.
Briefly, to prevent non-specific sticking of proteins, flow chambers were prepared with mPEG-passivated glass slides and coverslips doped with ~1% biotinylated mPEG, as previously described. Prior to each experiment, chambers were incubated with 0.2 mg/mL NeutrAvidin (ThermoFisher) for 2 min followed by 10 nM of a biotinylated anti-HA antibody (abcam ab26228) for 20–30 min. After each conjugation step, the chambers were washed with T50 buffer (50 mM NaCl, 10 mM Tris, pH 7.5).
After labeling, cells were dissociated from coverslips by incubating with Ca^2+-free PBS for 20 min followed by gentle pipetting. […] Following 1 hr of lysis at 4°C, cells were centrifuged at 16,000 g for 20 min before the supernatant was collected and maintained on ice. The cell lysate was diluted in a 0.1% detergent dilution buffer to obtain sparse immobilization of labeled protein on the passivated slide. […]
Single molecules were imaged with a 100x objective on an inverted microscope (Olympus IX73) in total internal reflection fluorescence (TIRF) mode. […]

For assay [4], the target named is T4, SNAP-mGluR2-TMD-N735D (Rattus norvegicus, UniProt P31421, N735D).
T4 construct: Following SNAP tag, mGluR2 truncatd to position Q558; N at position 735 replaced with D; expressed in transfected cells; host or cells: HEK 293T
T4 sequence (P31421 558-872 N735D): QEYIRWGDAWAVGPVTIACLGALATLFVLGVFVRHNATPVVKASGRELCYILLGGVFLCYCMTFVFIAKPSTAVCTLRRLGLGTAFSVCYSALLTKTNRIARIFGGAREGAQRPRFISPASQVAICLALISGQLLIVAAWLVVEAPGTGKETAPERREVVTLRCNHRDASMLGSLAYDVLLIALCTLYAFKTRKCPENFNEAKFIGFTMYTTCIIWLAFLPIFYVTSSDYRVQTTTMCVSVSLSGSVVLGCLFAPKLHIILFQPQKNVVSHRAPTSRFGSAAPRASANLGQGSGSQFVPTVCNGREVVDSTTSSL
The assay is described as follows: Inter-TMD FRET assay, N735D mutant. The class given is cell-based. The settings on record: SNAP-mGluR2-TMD-N735D; normalized to saturating LY48; read-out: inter-TMD FRET increase EC50, N735D. The method, then: (§2) Fluorophores were diluted in EX solution, which was also used to wash coverslips following labeling and prior to mounting on the microscope. After labeling, cells were mounted on an inverted microscope (Olympus IX73) and imaged with a 60x objective. […] Clusters of cells were analyzed together using ImageJ and FRET was calculated as FRET=(IAcceptor)/(IDonor +IAcceptor) where I is fluorescence intensity. No corrections were made for bleed-through between channels or the contribution of donor-donor or acceptor-acceptor dimers as analysis was limited to relative FRET changes between drug treatments rather than absolute FRET values. […] FRET changes calculated for dose–response curves were normalized to the response to saturating […] applied within the same recording and dose–response curves were obtained from multiple cell clusters and averaged from at least three separate experiments. Dose–response curves were fit using Prism (Graphpad). All drugs were purchased from Tocris, prepared in EX solution, and delivered with a gravity-driven perfusion system. For kinetics measurements a pressurized perfusion system (Automate Scientific) was used to produce a flow rate of 0.5 mL/s. Kinetic analysis was performed in Microsoft Excel. The time between 10% and 90% FRET increase or decrease was determined manually. […]

For assay [5], the system named is SNAP-mGluR2-TMD-N735D. Description: Inter-TMD FRET assay, N735D mutant. Format: cell-based, Rattus norvegicus. The following applies: N735D compared to wild-type receptor. The method, then: as §2

T3 sequence (P31421 19-872): as the sequence (P31421 19-872 R57A) above, with A39R counted along it
T1 sequence (P31421 19-872): as the sequence (P31421 19-872 R57A) above, with A39R counted along it

As a reminder, the EC50 is the concentration needed to bring the measured effect to its halfway point. As to `COc1ccccc1Oc1ccc(N(Cc2cccnc2)S(=O)(=O)CC(F)(F)F)cc1` [LY48], the EC50 is 1.2 ± 0.2 µM in assay [1]; 0.29 ± 0.08 µM in assay [2] (SNAP-mGluR2-R57A, normalized to saturating glutamate, mean ± s.e.m., read-out: GIRK activation EC50); around 0.3 µM in assay [2] (mGluR2-R57A, read-out: GIRK activation EC50 (approximate)); 20.5 ± 1.4 µM in assay [4]. Besides, the “maximal PAM-induced GIRK activation relative to glutamate” value in assay [2] (mGluR2-R57A, relative to glutamate) is given as ~ 70%. In assay [3], the “two-step bleaching events of SNAP-mGluR2 with glutamate plus LY48” value was ~ 60%. The “rightward shift of inter-TMD FRET dose-response curve, N735D versus wild-type” value in assay [5] is reported as ~ 20 fold.
